For one molecule, IC50 results are on record in patent US20260085034A1, “N-(BENZHYDRYL)CYCLOALKYLCARBOXAMIDE DERIVATIVES AS INHIBITORS OF GLYCOGEN SYNTHASE 1 (GYS1) AND METHODS OF USE THEREOF” (Maze Therapeutics, Inc., priority 2022, published 2026).

Broadly, the IC50 is the concentration needed to halve the response being measured.

The assay has as its target T1, recombinant hGYS2/GN1 protein (Homo sapiens, UniProt P54840).
T1 sequence (P54840 1-703): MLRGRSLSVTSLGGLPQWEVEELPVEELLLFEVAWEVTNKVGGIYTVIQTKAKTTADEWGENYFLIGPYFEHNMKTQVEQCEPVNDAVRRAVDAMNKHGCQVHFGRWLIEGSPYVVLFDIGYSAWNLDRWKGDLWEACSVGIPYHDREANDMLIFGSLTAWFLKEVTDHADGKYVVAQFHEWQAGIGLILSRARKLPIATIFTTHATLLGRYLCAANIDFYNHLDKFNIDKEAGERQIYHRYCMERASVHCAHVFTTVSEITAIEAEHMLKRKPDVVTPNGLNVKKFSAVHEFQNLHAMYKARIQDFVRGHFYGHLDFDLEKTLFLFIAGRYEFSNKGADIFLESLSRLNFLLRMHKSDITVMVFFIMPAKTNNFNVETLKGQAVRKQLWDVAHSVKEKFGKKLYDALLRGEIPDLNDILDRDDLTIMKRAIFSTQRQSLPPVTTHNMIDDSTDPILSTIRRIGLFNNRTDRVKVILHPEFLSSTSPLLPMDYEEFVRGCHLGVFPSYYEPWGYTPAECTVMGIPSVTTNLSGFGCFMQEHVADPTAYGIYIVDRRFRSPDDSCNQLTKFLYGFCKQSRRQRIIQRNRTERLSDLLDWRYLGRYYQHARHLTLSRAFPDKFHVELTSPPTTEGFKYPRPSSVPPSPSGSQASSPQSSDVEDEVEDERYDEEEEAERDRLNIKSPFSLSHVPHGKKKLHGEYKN
T1 sequence (P46976 1-350 partner): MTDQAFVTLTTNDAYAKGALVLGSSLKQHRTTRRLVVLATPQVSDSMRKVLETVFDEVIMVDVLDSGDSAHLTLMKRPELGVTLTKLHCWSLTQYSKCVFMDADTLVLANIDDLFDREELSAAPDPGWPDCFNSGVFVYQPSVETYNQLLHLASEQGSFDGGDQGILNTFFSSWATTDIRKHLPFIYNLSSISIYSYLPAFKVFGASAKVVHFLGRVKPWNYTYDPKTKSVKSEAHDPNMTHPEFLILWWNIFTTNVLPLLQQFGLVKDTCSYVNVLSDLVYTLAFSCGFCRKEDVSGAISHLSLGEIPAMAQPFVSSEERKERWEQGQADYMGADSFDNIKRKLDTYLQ
Description: GYS2 coupled enzyme assay (PK/LDH). The assay is classed as biochemical. The conditions noted are these: geometric mean of at least 2 assay runs; NADH absorbance at 340 nm. The gist of the method: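 Reaction in 50 mM Tris pH 7.5, 2 mM MgCl2, 100 mM KCl, 0.02% BSA, 1 mM TCEP, 2.5% DMSO, with 0.2% glycogen. Substrate buffer held 200 nM hGYS2/GN1, 2 mM each UDP-glucose, G6P and PEP, 0.6 mM NADH and PK/LDH, before 1:1 mixing. A340 slope over 10 min was control-normalized and Hill-fitted; IC50 = geometric mean of ≥2 runs, duplicates per run.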

For the molecule `CC(C)c1ccc([C@@H](NC(=O)[C@H]2C[C@@H]2F)c2ccn[nH]2)cc1F` (single isomer, unassigned) [compound 11], the IC50 is > 100 µM.
